Reference: PubChem BioAssay AID624133 (Broad Institute, 2012)
Where “and” joins values, the source holds several entries; their conditions need not be identical. Equal values may be shown once.

Each molecule was assayed on Clone20-Shn3RL cells, Renilla luciferase luminescence, 24 h (assay: control 3'UTR Renilla luciferase suppression, dose response, counter-screen for Shn3 inhibitor project, cell-based, Clone20-Shn3RL, cherry-picked (AID 624133)).

| SMILES | AC50 |
| --- | --- |
| CC(=O)OCC12CC(OC(=O)CC(C)C)C(C)=CC1OC1C(O)C(OC(C)=O)C2(C)C12CO2 (centres undefined) | < 0.26 µM |
| CCN1CCN(Cc2ccc(NC(=O)c3cc(NC(=O)c4cc5cccc(OC)c5o4)cc(OC)c3)cc2C(F)(F)F)CC1 | 25.1 µM and 9.12 µM |
| CC(=O)OC1CC2OC3C=C(C)CCC3(C)C1(C)C21CO1 (centres undefined) | 3.25 µM |
| CC1=CC2OC3CC4OC(=O)C=CC=CC(C(C)O)OCC(O)C(C)CC(=O)OCC2(CC1O)C4(C)C31CO1 (centres undefined) | < 0.26 µM |
| CC1=CC2OC3CC4OC(=O)C=CC=CC(=O)OCCC(C)C(O)C(=O)OCC2(CC1O)C4(C)C31CO1 (centres undefined) | 4.79 µM |
| C[C@H]1[C@@H](OS(=O)(=O)O)C[C@@H]2C[C@H]([C@@H](O)c3cc(=O)[nH]c(=O)[nH]3)NC3=NC[C@H]1N32 | 3.1 µM |
| CC1=CC2OC3CC4OC(=O)C=CC=CC(C(C)O)OCC(O)C5(C)OC5C(=O)OCC2(CC1O)C4(C)C31CO1 (centres undefined) | < 0.26 µM |
| CC(=O)OC[C@]12CCC(C)=C[C@H]1O[C@@H]1[C@H](O)[C@@H](OC(C)=O)[C@@]2(C)[C@]12CO2 | < 0.26 µM |
| CC(=O)OC1C(=O)OCC23CCC4(C)OC4C2OC2CC(OC(=O)C=CC=CC(=O)OCCC1C)C3(C)C21CO1 (centres undefined) | < 0.26 µM |
